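Briefly, cells in 96-well plates were exposed to five compound concentrations for 48 h, and endpoints were estimated by linear interpolation. The concentration for 50% growth inhibition is given as GI50.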 Calls of active or inactive are those of the source. Rule as the data show it: active = GI50 up to about 1.1 µM and inactive = higher.
Experiments:
Assay in all cases: NCI tumour cell line growth inhibition, 48 h
DLD-1 = test system: DLD-1
DMS-273 = test system: DMS-273
HOP-18 = test system: HOP-18
KM-20L2 = test system: KM-20L2
M19-MEL = test system: M19-MEL
RXF 631 = test system: RXF 631
SNB-78 = test system: SNB-78
XF498 = test system: XF498
DMS-114 = test system: DMS-114

Row | Compound | GI50 (DLD-1) | GI50 (DMS-273) | GI50 (HOP-18) | GI50 (KM-20L2) | GI50 (M19-MEL) | GI50 (RXF 631) | GI50 (SNB-78) | GI50 (XF498) | GI50 (DMS-114)
1 | CCCCCCCCCCCCCCCCCCN(C)C(COC)COP(=O)([O-])OCC[N+](C)(C)C (configuration not stated) | 3.48 µM (inactive) | 1.38 µM (inactive) | 6.08 µM (inactive) | 2.08 µM (inactive) | 3.25 µM (inactive) | 6.85 µM (inactive) | 4.5 µM (inactive) | 18.6 µM (inactive) | 
2 | CC(/C=C/C=C\C=C\C=C(/C)C(=O)NC(C)CO)=C\C(C)C(O)/C(C)=C/C(C)CCc1ccccc1 (configuration not stated) | 13.7 µM (inactive) | 1.87 µM (inactive) | 10.8 µM (inactive) | 11.1 µM (inactive) | 5.15 µM (inactive) |  | 8.04 µM (inactive) | 7.71 µM (inactive) | < 0.01 µM (active)
3 | CC/C(C)=C1\CCC(CN(C)C)C1=O (configuration not stated) | 16.4 µM (inactive) | 18.9 µM (inactive) | 18.2 µM (inactive) | 21.7 µM (inactive) | 18.1 µM (inactive) | 19.9 µM (inactive) | 24.8 µM (inactive) | 19.7 µM (inactive) | 23.4 µM (inactive)
4 | COC(=O)C(CCS(=O)(=O)CC(=O)C(=O)Nc1cccc(C(C)=O)c1)C(=O)OC | > 56.2 µM (inactive) | > 100 µM (inactive) | > 100 µM (inactive) | > 100 µM (inactive) | > 100 µM (inactive) | > 100 µM (inactive) | > 100 µM (inactive) | > 100 µM (inactive) | > 39.4 µM (inactive)
5 | CC(C)N(C(=O)C12C3C4C5C3C1(C(=O)N(C(C)C)C(C)C)C5C42)C(C)C (configuration not stated) | > 45.3 µM (inactive) | > 41.7 µM (inactive) | > 100 µM (inactive) | > 100 µM (inactive) | > 100 µM (inactive) |  | > 100 µM (inactive) | > 100 µM (inactive) | > 44.5 µM (inactive)
6 | COC1=CC(=O)[C@H]2[C@H](C)C(c3ccccc3)[C@@]2(C)C1=O (some centres not stated) | > 100 µM (inactive) | > 100 µM (inactive) |  |  | > 100 µM (inactive) |  | > 100 µM (inactive) | > 100 µM (inactive) | 
7 | O=C1C(Cl)C(c2ccccc2)N1n1cnc2ccccc2c1=O (configuration not stated) | > 100 µM (inactive) | > 100 µM (inactive) | 26.5 µM (inactive) | > 100 µM (inactive) | > 100 µM (inactive) |  | > 100 µM (inactive) | > 100 µM (inactive) | > 100 µM (inactive)
8 | C=CCN1COc2c(cc3c4c(cccc24)C(=O)O3)C1 | 25.4 µM (inactive) | 38.6 µM (inactive) | > 100 µM (inactive) | 24.3 µM (inactive) | 18.7 µM (inactive) |  |  | 20.2 µM (inactive) | 17.9 µM (inactive)
9 | O=C1/C(=C/c2cc(O)c(O)c(O)c2)Oc2cc(O)cc(OC3OC(CO)C(O)C(O)C3O)c21 (configuration not stated) | 18.7 µM (inactive) | 1.85 µM (inactive) | 53.5 µM (inactive) | 21.2 µM (inactive) | 18 µM (inactive) | 1.81 µM (inactive) | 19.4 µM (inactive) |  | 25.2 µM (inactive)
10 | CCc1cccc(C(C)C)c1NC(=O)C(=O)C(C(=O)C(=O)OC)c1nc2ccccc2nc1O (configuration not stated) |  | > 100 µM (inactive) | > 100 µM (inactive) | > 100 µM (inactive) | > 100 µM (inactive) | > 100 µM (inactive) | > 100 µM (inactive) | > 100 µM (inactive) | > 100 µM (inactive)
11 | Cc1ccc2c(c1)CNc1ccc(C)cc1CN2 | > 100 µM (inactive) | > 100 µM (inactive) | > 100 µM (inactive) |  | > 100 µM (inactive) |  | > 100 µM (inactive) | > 100 µM (inactive) | > 100 µM (inactive)
12 | CC(=O)/C=C1\CC(=O)Nc2ccccc2N1 | > 100 µM (inactive) |  |  | > 100 µM (inactive) |  |  | > 100 µM (inactive) |  | > 100 µM (inactive)
13 | CCCc1cc(OC(=O)c2c(O)cc(OC)cc2CCC)cc(O)c1C(=O)O | 36.5 µM (inactive) | 32.1 µM (inactive) |  | 37.4 µM (inactive) | 42.8 µM (inactive) | 26.3 µM (inactive) | 25 µM (inactive) | 25.9 µM (inactive) | 19.6 µM (inactive)
14 | N#C/C(=C\c1cccc(Cl)c1Cl)c1ccccc1 | > 72.8 µM (inactive) | 21 µM (inactive) | 52.2 µM (inactive) | > 100 µM (inactive) | > 84.3 µM (inactive) | 50 µM (inactive) | 50.2 µM (inactive) | > 42.3 µM (inactive) | 43.7 µM (inactive)
15 | Cc1ccc(NC(=O)CCC/C(CC(=O)c2ccc(Br)cc2)=N/NC(=O)CC#N)cc1 | > 100 µM (inactive) |  |  | > 100 µM (inactive) | > 100 µM (inactive) |  | > 100 µM (inactive) |  | > 100 µM (inactive)
16 | CSc1nc(Cl)c(Br)c(Sc2nc(N)nc3nc[nH]c23)n1 | 11.1 µM (inactive) | 3.14 µM (inactive) |  | 5.9 µM (inactive) | 7.45 µM (inactive) |  |  | 15.8 µM (inactive) | 4.74 µM (inactive)
17 | C/N=C(\N=c1/ss/c(=N\C)n1C)N(C)C.[O-][Cl+3]([O-])([O-])O | 94.6 µM (inactive) | 37.8 µM (inactive) | 23.9 µM (inactive) | > 100 µM (inactive) | > 100 µM (inactive) | > 100 µM (inactive) |  | > 100 µM (inactive) | > 100 µM (inactive)
18 | COc1cc2c(cc1OC)C1C=NC(C(=O)O)(C2)c2ccccc21 (configuration not stated) | > 100 µM (inactive) | > 100 µM (inactive) |  | > 100 µM (inactive) | > 100 µM (inactive) | > 100 µM (inactive) | > 100 µM (inactive) |  | > 100 µM (inactive)
19 | NC(CCc1nc(-c2ccccc2)cs1)C(=O)O (configuration not stated) | > 100 µM (inactive) | > 100 µM (inactive) | > 100 µM (inactive) |  | > 100 µM (inactive) |  | > 100 µM (inactive) |  | > 100 µM (inactive)
20 | COC(=O)C1Cc2c([nH]c3ccccc23)C(C2CCCCC2)N1 (configuration not stated) | > 100 µM (inactive) | > 100 µM (inactive) | > 100 µM (inactive) | > 100 µM (inactive) | > 100 µM (inactive) | > 100 µM (inactive) |  |  | > 100 µM (inactive)
21 | CN1C(=O)C(=CN)C(=O)N(C)C1=O | > 100 µM (inactive) |  | > 100 µM (inactive) | > 100 µM (inactive) | > 100 µM (inactive) |  | > 100 µM (inactive) | > 100 µM (inactive) | > 100 µM (inactive)
22 | CCOC(=O)C1(C/C=C(/C)Cl)CCCC1=O (configuration not stated) | 71.3 µM (inactive) | 23 µM (inactive) | > 100 µM (inactive) | 47.6 µM (inactive) | > 100 µM (inactive) | 95.1 µM (inactive) |  | > 100 µM (inactive) | 71.6 µM (inactive)
23 | NC1=NN(c2ccccc2)C(=O)C1/C(=N\NC(=O)c1cc2ccccc2cc1O)C(=O)Nc1nc([N+](=O)[O-])cs1 (configuration not stated) | 31.5 µM (inactive) | > 45.2 µM (inactive) | 40 µM (inactive) | 40.9 µM (inactive) | 27.8 µM (inactive) | 22.7 µM (inactive) | > 100 µM (inactive) | 36.6 µM (inactive) | 18.4 µM (inactive)
24 | COc1ccccc1NC(=O)CC(=O)n1nc(C)c(/N=N/c2ccccc2Cl)c1C | > 100 µM (inactive) | > 100 µM (inactive) | > 100 µM (inactive) | > 100 µM (inactive) | > 100 µM (inactive) | > 31.6 µM (inactive) | 5.12 µM (inactive) | > 100 µM (inactive) | > 100 µM (inactive)
25 | O=C(CC1(O)C(=O)Nc2ccc(Br)cc21)c1ccc(Cl)cc1 (configuration not stated) | 70.8 µM (inactive) |  | 72.4 µM (inactive) | > 100 µM (inactive) |  | 31.5 µM (inactive) | 83.8 µM (inactive) |  | 
26 | CC1CC2C(=O)NC(=O)C2c2[nH]c3ccccc3c21 (configuration not stated) | > 100 µM (inactive) | > 100 µM (inactive) |  |  | > 100 µM (inactive) |  | > 100 µM (inactive) | > 100 µM (inactive) | 96.2 µM (inactive)
27 | CC(=O)OC1CC2C(C)(C)C(=O)C=C[C@]2(C)C2CCC3(C)C(c4ccoc4)[C@@H](O)[C@H]4O[C@]43[C@]12C (some centres not stated) | 20.4 µM (inactive) | 22.1 µM (inactive) | 21.6 µM (inactive) | 18.5 µM (inactive) | 18.7 µM (inactive) |  | 25.6 µM (inactive) |  | 20.1 µM (inactive)
28 | N/N=C1\C(=O)N(C2CCCCC2)C(=O)C1C(=O)NC1CCCCC1 (configuration not stated) | > 100 µM (inactive) |  | > 100 µM (inactive) | 20.7 µM (inactive) | > 100 µM (inactive) | > 100 µM (inactive) | 43.1 µM (inactive) | > 100 µM (inactive) | > 100 µM (inactive)
29 | COc1ccc2cc3[n+](cc2c1OC)CCc1cc(O)c(O)cc1-3 | > 100 µM (inactive) | > 100 µM (inactive) |  | > 100 µM (inactive) | > 100 µM (inactive) | > 100 µM (inactive) | > 100 µM (inactive) | > 100 µM (inactive) | > 100 µM (inactive)

— ChEMBL document CHEMBL1201862, “PubChem BioAssay data set” (2004)
